Like-named read-outs stand apart in the source and are kept apart here.
Key:
[1] = target: monkey NPR1 (Macaca fascicularis, UniProt A0A7N9DBT9); assay: Cellular cGMP production assay, monkey NPR1 expressing CHO-K1 cells (CisBio HTRF); format: cell-based; details: for Monkey NPR1 Amax (% of ANP): maximum cGMP production as percentage of the maximum cGMP produced with ANP
How it was run: (§1)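 Read-out was HTRF (excitation 317 nm, emission 665 nm), with cGMP quantified as Delta F against a calibrator standard curve. Beforehand, cells were exposed for 30 min at 37 °C to compound (30 μM top, twelve 3-fold steps) in IBMX-containing PBS/BSA buffer, then lysed.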

[2] = target: T1, human NPR1 (Homo sapiens, UniProt P16066); assay: Cellular cGMP production assay, human NPR1 expressing CHO-K1 cells (CisBio HTRF); format: cell-based; details: for AC50: cGMP production, 30 min at 37° C., 12-point dose-response from 30 μM; for Human NPR1 Amax (% of ANP): maximum cGMP production as percentage of the maximum cGMP produced with ANP
T1 construct: host or cells: CHO-K1
T1 sequence (P16066 33-1061): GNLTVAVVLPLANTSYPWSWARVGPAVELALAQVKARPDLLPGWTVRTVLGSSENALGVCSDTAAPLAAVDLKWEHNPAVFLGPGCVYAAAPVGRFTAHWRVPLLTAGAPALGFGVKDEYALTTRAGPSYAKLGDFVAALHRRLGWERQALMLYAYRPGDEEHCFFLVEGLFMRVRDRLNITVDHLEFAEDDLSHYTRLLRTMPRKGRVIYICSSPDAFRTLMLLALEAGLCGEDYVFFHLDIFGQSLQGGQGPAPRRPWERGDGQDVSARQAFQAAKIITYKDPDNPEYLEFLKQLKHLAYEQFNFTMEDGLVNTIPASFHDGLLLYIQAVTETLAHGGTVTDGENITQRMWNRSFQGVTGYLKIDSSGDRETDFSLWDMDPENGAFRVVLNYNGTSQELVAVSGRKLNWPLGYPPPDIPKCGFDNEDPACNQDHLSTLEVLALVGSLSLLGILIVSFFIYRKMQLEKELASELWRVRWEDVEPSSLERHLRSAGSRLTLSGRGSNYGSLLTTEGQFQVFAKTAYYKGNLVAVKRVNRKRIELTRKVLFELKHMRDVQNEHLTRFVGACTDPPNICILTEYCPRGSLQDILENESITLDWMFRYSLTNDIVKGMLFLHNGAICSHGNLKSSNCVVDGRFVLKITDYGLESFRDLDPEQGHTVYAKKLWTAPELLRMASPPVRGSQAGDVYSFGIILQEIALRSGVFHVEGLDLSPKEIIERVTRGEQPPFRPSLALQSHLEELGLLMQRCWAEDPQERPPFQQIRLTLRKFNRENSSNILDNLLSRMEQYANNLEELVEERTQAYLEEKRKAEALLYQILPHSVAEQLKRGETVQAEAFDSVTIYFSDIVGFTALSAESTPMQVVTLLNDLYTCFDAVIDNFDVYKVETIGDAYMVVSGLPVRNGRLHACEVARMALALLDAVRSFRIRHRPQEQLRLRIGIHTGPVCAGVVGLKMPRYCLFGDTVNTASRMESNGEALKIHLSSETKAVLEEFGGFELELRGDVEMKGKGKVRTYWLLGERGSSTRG
How it was run: as §1

[3] = cGMP production, monkey NPR1 CHO-K1 cells, 30 min at 37° C., 12-point dose-response from 30 μM, read-out: Monkey NPR1 AC50

Chain of monkey NPR1 (A0A7N9DBT9 entry or part of it): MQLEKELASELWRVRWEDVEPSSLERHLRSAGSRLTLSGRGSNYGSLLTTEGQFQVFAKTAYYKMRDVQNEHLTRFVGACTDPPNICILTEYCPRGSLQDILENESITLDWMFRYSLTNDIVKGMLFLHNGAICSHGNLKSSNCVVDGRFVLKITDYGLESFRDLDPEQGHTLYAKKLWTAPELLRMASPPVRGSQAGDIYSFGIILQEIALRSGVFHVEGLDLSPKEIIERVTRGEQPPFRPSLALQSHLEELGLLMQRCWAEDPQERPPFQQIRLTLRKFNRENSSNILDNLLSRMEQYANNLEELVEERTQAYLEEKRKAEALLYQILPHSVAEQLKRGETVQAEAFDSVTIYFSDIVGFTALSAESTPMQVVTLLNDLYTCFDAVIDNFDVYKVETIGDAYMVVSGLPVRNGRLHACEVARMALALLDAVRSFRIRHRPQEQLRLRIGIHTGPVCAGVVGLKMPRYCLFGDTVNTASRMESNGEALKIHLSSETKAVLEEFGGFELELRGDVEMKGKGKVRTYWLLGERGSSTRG

## CC[C@H]([C@H]1CC[C@H](C(=O)O)CC1)N(C)c1nc2c(c(N[C@@H](CN3CCC[C@H](C)C3)c3cnn(C)c3)n1)CN(c1ccccc1F)CC2 [Compound 106, (1R,4r)-4-((R)-1-((6-(2-fluorophenyl)-4-(((R)-1-(1-methyl-1H-pyrazol-4-yl)-2-((S)-3-methylpiperidin-1-yl)ethyl)amino)-5,6,7,8-tetrahydropyrido[4,3-d]pyrimidin-2-yl)(methyl)amino)propyl)cyclohexane-1-carboxylic acid]
[1]; [3]
  AC50: 254 nM
[1]; monkey NPR1 CHO-K1 cells
  Monkey NPR1 Amax (% of ANP): 104.076 % of ANP
[2]
  AC50: 399 nM
  Human NPR1 Amax (% of ANP): 100.198 % of ANP

## CC[C@H]([C@H]1CC[C@H](C(=O)O)CC1)N(C)c1nc2c(c(N[C@@H](CN3CCCC[C@H]3CO)c3cnn(CC)c3)n1)C[C@H](c1cccc(F)c1)CC2 [Compound 135, (1R,4r)-4-((R)-1-(((R)-4-(((R)-1-(1-ethyl-1H-pyrazol-4-yl)-2-((S)-2-(hydroxymethyl)piperidin-1-yl)ethyl)amino)-6-(3-fluorophenyl)-5,6,7,8-tetrahydroquinazolin-2-yl)(methyl)amino)propyl)cyclohexane-1-carboxylic acid]
[1]; [3]
  AC50: 604 nM
[1]; monkey NPR1 CHO-K1 cells
  Monkey NPR1 Amax (% of ANP): 99.242 % of ANP
[2]
  AC50: 805 nM
  Human NPR1 Amax (% of ANP): 94.757 % of ANP

## CC[C@@H](Nc1nc2c(c(N[C@@H](CN3CCCC[C@@H]3C)c3cnn(C)c3)n1)C[C@H](c1ccccc1)CC2)[C@H]1CC[C@H](C(=O)O)CC1 [Compound 123, (1R,4r)-4-((R)-1-(((R)-4-(((R)-1-(1-methyl-1H-pyrazol-4-yl)-2-((S)-2-methylpiperidin-1-yl)ethyl)amino)-6-phenyl-5,6,7,8-tetrahydroquinazolin-2-yl)amino)propyl)cyclohexane-1-carboxylic acid]
[1]; [3]
  AC50: 377 nM
[1]; monkey NPR1 CHO-K1 cells
  Monkey NPR1 Amax (% of ANP): 102.761 % of ANP
[2]
  AC50: 592 nM
  Human NPR1 Amax (% of ANP): 103.006 % of ANP

## C[C@H]1CCCN(C[C@H](Nc2nc(N(C)[C@H](C3CC3)[C@H]3CC[C@H](C(=O)O)CC3)nc3c2C[C@H](c2ccccc2)CC3)c2cnn(C)c2)C1 [Compound 120, (1R,4r)-4-((R)-cyclopropyl(methyl((R)-4-(((R)-1-(1-methyl-1H-pyrazol-4-yl)-2-((S)-3-methylpiperidin-1-yl)ethyl)amino)-6-phenyl-5,6,7,8-tetrahydroquinazolin-2-yl)amino)methyl)cyclohexane-1-carboxylic acid]
[1]; [3]
  AC50: 427 nM
[1]; monkey NPR1 CHO-K1 cells
  Monkey NPR1 Amax (% of ANP): 102.755 % of ANP
[2]
  AC50: 553 nM
  Human NPR1 Amax (% of ANP): 96.905 % of ANP

## CC[C@@H](N(C)c1nc2c(c(N[C@@H](CN3C4CCCC3CCC4)c3cnn(C)c3)n1)C[C@](C)(c1ccccc1)CC2)C12CC(C(=O)O)(C1)C2 [Compound 27, 3-((R)-1-(((R)-4-(((R)-2-((1S,5S)-9-azabicyclo[3.3.1]nonan-9-yl)-1-(1-methyl-1H-pyrazol-4-yl)ethyl)amino)-6-methyl-6-phenyl-5,6,7,8-tetrahydroquinazolin-2-yl)(methyl)amino)propyl)bicyclo[1.1.1]pentane-1-carboxylic acid]
[1]
  AC50: 137 nM
[1]; monkey NPR1 CHO-K1 cells
  Monkey NPR1 Amax (% of ANP): 102.654 % of ANP
[2]
  AC50: 137 nM
  Human NPR1 Amax (% of ANP): 92.458 % of ANP

## CC[C@@H](Nc1nc2c(c(N[C@@H](CN3CCCC4(CCC4)C3)c3cnn(CC)c3)n1)C[C@H](c1ccccc1)CC2)[C@H]1CC[C@H](C(=O)O)CC1 [Compound 126, (1R,4r)-4-((R)-1-(((R)-4-(((R)-1-(1-ethyl-1H-pyrazol-4-yl)-2-(6-azaspiro[3.5]nonan-6-yl)ethyl)amino)-6-phenyl-5,6,7,8-tetrahydroquinazolin-2-yl)amino)propyl)cyclohexane-1-carboxylic acid]
[1]; [3]
  AC50: 452 nM
[1]; monkey NPR1 CHO-K1 cells
  Monkey NPR1 Amax (% of ANP): 102.477 % of ANP
[2]
  AC50: 620 nM
  Human NPR1 Amax (% of ANP): 98.906 % of ANP

## CC[C@@H](N(C)c1nc2c(c(N[C@@H](CN3CCC[C@H](C)C3)c3cnn(C)c3)n1)C[C@H](c1ccccc1)CC2)C12CC(C(=O)O)(C1)C2 [Compound 44, 3-((R)-1-(methyl((R)-4-(((R)-1-(1-methyl-1H-pyrazol-4-yl)-2-((S)-3-methylpiperidin-1-yl)ethyl)amino)-6-phenyl-5,6,7,8-tetrahydroquinazolin-2-yl)amino)propyl)bicyclo[1.1.1]pentane-1-carboxylic acid]
[1]; [3]
  AC50: 102 nM
[1]; monkey NPR1 CHO-K1 cells
  Monkey NPR1 Amax (% of ANP): 107.199 % of ANP
[2]
  AC50: 173 nM
  Human NPR1 Amax (% of ANP): 99.256 % of ANP

## CC[C@H]([C@H]1CC[C@H](C(=O)O)CC1)N(C)c1nc2c(c(N[C@@H](CN3CCC[C@H](C)C3)c3cnn(C)c3)n1)C[C@H](c1ccc(F)cc1)CC2 [Compound 14, (1R,4r)-4-((R)-1-(((R)-6-(4-fluorophenyl)-4-(((R)-1-(1-methyl-1H-pyrazol-4-yl)-2-((S)-3-methylpiperidin-1-yl)ethyl)amino)-5,6,7,8-tetrahydroquinazolin-2-yl)(methyl)amino)propyl)cyclohexane-1-carboxylic acid]
[1]; [3]
  AC50: 62 nM
[1]; monkey NPR1 CHO-K1 cells
  Monkey NPR1 Amax (% of ANP): 88.286 % of ANP
[2]
  AC50: 97 nM
  Human NPR1 Amax (% of ANP): 94.761 % of ANP

## CC[C@@H](N(C)c1nc2c(c(N[C@@H](CN3C4CCCC3CC4)c3scnc3C)n1)C[C@H](c1cccc(F)c1)CC2)C12CC(C(=O)O)(C1)C2 [Compound 113, 3-((1R)-1-(((6R)-4-(((1S)-2-(8-azabicyclo[3.2.1]octan-8-yl)-1-(4-methylthiazol-5-yl)ethyl)amino)-6-(3-fluorophenyl)-5,6,7,8-tetrahydroquinazolin-2-yl)(methyl)amino)propyl)bicyclo[1.1.1]pentane-1-carboxylic acid]
[1]
  AC50: 460 nM
[1]; monkey NPR1 CHO-K1 cells
  Monkey NPR1 Amax (% of ANP): 99.894 % of ANP
[2]
  AC50: 438 nM
  Human NPR1 Amax (% of ANP): 98.462 % of ANP

## CC[C@@H](Nc1nc2c(c(N[C@@H](CN3CCCC(C)(C)C3)c3cnn(C)c3)n1)C[C@H](c1ccccc1)CC2)[C@H]1CC[C@H](C(=O)O)CC1 [Compound 95, (1R,4r)-4-((R)-1-(((R)-4-(((R)-2-(3,3-dimethylpiperidin-1-yl)-1-(1-methyl-1H-pyrazol-4-yl)ethyl)amino)-6-phenyl-5,6,7,8-tetrahydroquinazolin-2-yl)amino)propyl)cyclohexane-1-carboxylic acid]
[1]; [3]
  AC50: 173 nM
[1]; monkey NPR1 CHO-K1 cells
  Monkey NPR1 Amax (% of ANP): 94.323 % of ANP
[2]
  AC50: 334 nM
  Human NPR1 Amax (% of ANP): 97.121 % of ANP

## CC[C@@H](N(C)c1nc2c(c(N[C@@H](CN3CCC[C@H](C)C3)c3cnn(C)c3)n1)C[C@](C)(c1ccccc1)CC2)C12CC(C(=O)O)(C1)C2 [Compound 8, 3-((R)-1-(methyl((R)-6-methyl-4-(((R)-1-(1-methyl-1H-pyrazol-4-yl)-2-((S)-3-methylpiperidin-1-yl)ethyl)amino)-6-phenyl-5,6,7,8-tetrahydroquinazolin-2-yl)amino)propyl)bicyclo[1.1.1]pentane-1-carboxylic acid]
[1]; [3]
  AC50: 77 nM
[1]; monkey NPR1 CHO-K1 cells
  Monkey NPR1 Amax (% of ANP): 101.778 % of ANP
[2]
  AC50: 87 nM
  Human NPR1 Amax (% of ANP): 92.409 % of ANP

## CC[C@H]([C@H]1CC[C@H](C(=O)O)CC1)N(C)c1nc2c(c(N[C@@H](CN3C4CCCC3CC4)c3cnn(C)c3)n1)C[C@](C)(c1ccccc1)CC2 [Compound 34, (1R,4r)-4-((1R)-1-(((6R)-4-(((1R)-2-(8-azabicyclo[3.2.1]octan-8-yl)-1-(1-methyl-1H-pyrazol-4-yl)ethyl)amino)-6-methyl-6-phenyl-5,6,7,8-tetrahydroquinazolin-2-yl)(methyl)amino)propyl)cyclohexane-1-carboxylic acid]
[1]
  AC50: 91 nM
[1]; monkey NPR1 CHO-K1 cells
  Monkey NPR1 Amax (% of ANP): 100.553 % of ANP
[2]
  AC50: 146 nM
  Human NPR1 Amax (% of ANP): 95.375 % of ANP

## CC[C@@H](Nc1nc2c(c(N[C@@H](CN(C)C)c3ccccc3)n1)C[C@H](c1ccccc1)CC2)[C@H]1CC[C@H](C(=O)O)CC1 [Compound 165, (1R,4r)-4-((R)-1-(((R)-4-(((R)-2-(dimethylamino)-1-phenylethyl)amino)-6-phenyl-5,6,7,8-tetrahydroquinazolin-2-yl)amino)propyl)cyclohexane-1-carboxylic acid]
[1]; [3]
  AC50: 1080 nM
[1]; monkey NPR1 CHO-K1 cells
  Monkey NPR1 Amax (% of ANP): 87.861 % of ANP
[2]
  AC50: 1810 nM
  Human NPR1 Amax (% of ANP): 90.595 % of ANP

Source: patent US12129246B1, “Hydroquinazoline derivatives for the treatment of a disease or disorder” (Novartis AG, priority 2023, dated 2024)
